In patent publication US9181305B2, “Exendin-4 peptide analogues” (SANOFI, priority 2012, dated 2015):
≈ marks a conversion by molar mass, not a printed value. *1 amine or outer side, *2 acyl side, *3 side chain or, on linkers, in order; H or OH if unused. Where a SMILES comes first, the peptide text is derived from it. Side-chain parts run from the residue outwards. [ ]: non-standard residue; d: D form. The star is where a group is joined. γGlu = O=C(O)[C@H](CCC(=O)[*:2])N[*:1]; Palmitoyl = CCCCCCCCCCCCCCCC(=O)*

Key:
[1] = biological target: T1, human GLP-1 receptor (hGLP-1 R) (Homo sapiens, UniProt P43220); assay: cAMP response (HTRF) of HEK-293 cells stably expressing human GLP-1 receptor; assay type: cell-based; details: HEK-293 cells expressing human GLP-1 receptor, cAMP formation
T1 construct: expressed in transfected cells; host or cells: HEK-293
T1 sequence (P43220 24-463): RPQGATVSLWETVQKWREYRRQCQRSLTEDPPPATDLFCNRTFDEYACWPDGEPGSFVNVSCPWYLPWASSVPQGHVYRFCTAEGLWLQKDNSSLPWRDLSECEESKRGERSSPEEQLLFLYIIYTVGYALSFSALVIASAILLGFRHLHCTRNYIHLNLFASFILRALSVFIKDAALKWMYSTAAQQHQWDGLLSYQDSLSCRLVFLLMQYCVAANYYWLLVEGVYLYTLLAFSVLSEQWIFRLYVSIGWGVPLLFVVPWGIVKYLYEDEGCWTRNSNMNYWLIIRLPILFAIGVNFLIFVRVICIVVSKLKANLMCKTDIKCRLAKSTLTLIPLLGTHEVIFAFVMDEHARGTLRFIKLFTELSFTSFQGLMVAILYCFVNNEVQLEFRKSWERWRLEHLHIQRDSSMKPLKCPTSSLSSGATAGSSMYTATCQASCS
Method in brief: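 Detached HEK-293 cells stably expressing the receptor were suspended in HBSS with 20 mM HEPES, 0.1% BSA and 2 mM IBMX. Test compound was added for 30 min at room temperature, and cellular cAMP was quantified by HTRF.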

[2] = biological target: T2, human glucagon receptor (hGlucagon R) (Homo sapiens, UniProt P47871); assay: cAMP response (HTRF) of HEK-293 cells stably expressing human glucagon receptor; assay type: cell-based; details: read-out: EC50 hGlucagonR
T2 construct: expressed in transfected cells; host or cells: HEK-293
T2 sequence (P47871 26-477): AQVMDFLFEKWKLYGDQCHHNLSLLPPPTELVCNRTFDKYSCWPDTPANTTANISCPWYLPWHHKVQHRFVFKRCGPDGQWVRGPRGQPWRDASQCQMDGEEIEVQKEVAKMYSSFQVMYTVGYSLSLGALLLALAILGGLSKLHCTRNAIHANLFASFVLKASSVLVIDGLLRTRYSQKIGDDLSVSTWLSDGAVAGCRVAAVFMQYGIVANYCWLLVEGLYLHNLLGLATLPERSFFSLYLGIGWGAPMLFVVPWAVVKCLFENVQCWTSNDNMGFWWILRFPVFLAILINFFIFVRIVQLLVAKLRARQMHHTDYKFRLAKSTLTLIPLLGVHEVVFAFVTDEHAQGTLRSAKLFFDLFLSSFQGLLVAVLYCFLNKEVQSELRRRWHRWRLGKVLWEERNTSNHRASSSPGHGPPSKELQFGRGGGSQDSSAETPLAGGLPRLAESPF
Protocol: cAMP content of cells was determined using a kit from Cisbio Corp. (cat. no. 62AM4PEC) based on HTRF (Homogenous Time Resolved Fluorescence). For preparation, cells were split into T175 culture flasks and grown overnight to near confluency in medium (DMEM/10% FBS). Medium was then removed and cells washed with PBS lacking calcium and magnesium, followed by proteinase treatment with accutase (Sigma-Aldrich cat. no. A6964). Detached cells were washed and resuspended in assay buffer (1×HBSS; 20 mM HEPES, 0.1% BSA, 2 mM IBMX) and cellular density determined. […] For measurement, 25 μl of test compound in assay buffer was added to the wells, followed by incubation for 30 minutes at room temperature.

[3] = physchem; assay type: physicochemical
Protocol: Prior to the testing of solubility and stability of a peptide batch, its content was determined. Therefore, two parameters were investigated, its purity (HPLC-UV) and the amount of salt load of the batch (ion chromatography). Since synthesized peptides contain primarily trifluoracetate anions, only anion chromatography was performed. The content was then calculated based on the assumption that peptide-related impurities are detected at the same UV-absorption rate as the target peptide, as well as that cations are not present in the sample.
Therefore, solutions from solid samples were prepared in different buffer systems with a concentration of 1.0 mg/mL compound based on the previously determined content. HPLC-UV was performed after 2 h of gentle agitation from the supernatant, which was obtained by 20 min of centrifugation at 4000 rpm. […] This analysis also served as t0 for the stability testing.
Instrument: Agilent 1100, column: X-Bridge C18 3.5 μm 2.1×150 mm (Waters), eluent: A: H20+500 ppm TFA/B: Methanol, flow: 0.55 ml/min, gradient: 0-5 min: 10-60% B; 5-15 min: 60-99% B; detection: 214 nm.

| SMILES | EC50 [1] | EC50 [2] | solubility at 2 h ([3]; pH 4.5) | solubility at 2 h ([3]; pH 7.4) |
| --- | --- | --- | --- | --- |
| CCCCCCCCCCCCCCCC(=O)N[C@@H](CCC(=O)NCCCC[C@H](NC(=O)[C@H](CO)NC(=O)[C@@H]1CCCN1C(=O)[C@@H]1CCCN1C(=O)[C@@H]1CCCN1C(=O)[C@H](C)NC(=O)CNC(=O)[C@H](CO)NC(=O)[C@H](CO)NC(=O)[C@@H]1CCCN1C(=O)CNC(=O)CNC(=O)[C@H](C)NC(=O)[C@H](CCCCN)NC(=O)[C@H](CC(C)C)NC(=O)[C@H](Cc1c[nH]c2ccccc12)NC(=O)[C@H](CCC(=O)O)NC(=O)[C@@H](NC(=O)[C@H](Cc1ccccc1)NC(=O)[C@H](CC(C)C)NC(=O)[C@H](CCC(N)=O)NC(=O)[C@H](C)NC(=O)[C@H](C)NC(=O)[C@H](CCCNC(=N)N)NC(=O)[C@H](CO)NC(=O)[C@H](CCC(=O)O)NC(=O)[C@H](CCSC)NC(=O)[C@H](CCC(N)=O)NC(=O)[C@H](CCCCN)NC(=O)[C@H](CO)NC(=O)[C@H](CC(C)C)NC(=O)[C@H](CC(=O)O)NC(=O)[C@H](CO)NC(=O)[C@@H](NC(=O)[C@H](Cc1ccccc1)NC(=O)[C@@H](NC(=O)CNC(=O)[C@H](CCC(N)=O)NC(=O)[C@@H](CO)NC(=O)[C@@H](N)Cc1c[nH]cn1)[C@@H](C)O)[C@@H](C)O)[C@@H](C)CC)C(N)=O)C(=O)O [(79)] (H-H[dS]QGTFTSDLSKQMESRAAQLFIEWLKAGGPSSGAPPPSK([γGlu-Palmitoyl])-NH2) | 3.7 pM | 195 pM | > 1000 µg/mL | 666 µg/mL (≈ 145 µM) |
| CCCCCCCCCCCCCCCC(=O)N[C@@H](CCC(=O)NCCCC[C@H](NC(=O)[C@H](CO)NC(=O)[C@@H]1CCCN1C(=O)[C@@H]1CCCN1C(=O)[C@@H]1CCCN1C(=O)[C@H](C)NC(=O)CNC(=O)[C@H](CO)NC(=O)[C@H](CO)NC(=O)[C@@H]1CCCN1C(=O)CNC(=O)[C@@H](NC(=O)[C@H](CC(N)=O)NC(=O)[C@H](CCCCN)NC(=O)[C@H](CC(C)C)NC(=O)[C@H](Cc1c[nH]c2ccccc12)NC(=O)[C@H](CCC(=O)O)NC(=O)[C@@H](NC(=O)[C@H](Cc1ccccc1)NC(=O)[C@H](CC(=O)O)NC(=O)[C@H](CCC(N)=O)NC(=O)[C@H](C)NC(=O)[C@H](CCCNC(=N)N)NC(=O)[C@H](CCCNC(=N)N)NC(=O)[C@H](CO)NC(=O)[C@H](CC(=O)O)NC(=O)[C@H](CCSC)NC(=O)[C@H](CCC(N)=O)NC(=O)[C@H](CCCCN)NC(=O)[C@H](CO)NC(=O)[C@H](CC(C)C)NC(=O)[C@H](CC(=O)O)NC(=O)[C@H](CO)NC(=O)[C@@H](NC(=O)[C@H](Cc1ccccc1)NC(=O)[C@@H](NC(=O)CNC(=O)[C@H](CCC(N)=O)NC(=O)[C@@H](CO)NC(=O)[C@@H](N)Cc1c[nH]cn1)[C@@H](C)O)[C@@H](C)O)[C@@H](C)CC)[C@@H](C)O)C(N)=O)C(=O)O [(71)] |  | 1.9 pM |  |  |
| CC[C@H](C)[C@H](NC(=O)[C@H](Cc1ccccc1)NC(=O)[C@H](CC(=O)O)NC(=O)[C@H](CCC(N)=O)NC(=O)[C@H](C)NC(=O)[C@H](CCCNC(=N)N)NC(=O)[C@H](CCCNC(=N)N)NC(=O)[C@H](CCC(=O)O)NC(=O)[C@H](CC(=O)O)NC(=O)[C@H](CCSC)NC(=O)[C@H](CCC(N)=O)NC(=O)[C@H](CCCCN)NC(=O)[C@H](CO)NC(=O)[C@H](CC(C)C)NC(=O)[C@H](CC(=O)O)NC(=O)[C@H](CO)NC(=O)[C@@H](NC(=O)[C@H](Cc1ccccc1)NC(=O)[C@@H](NC(=O)CNC(=O)[C@H](CCC(N)=O)NC(=O)[C@H](CO)NC(=O)[C@@H](N)Cc1c[nH]cn1)[C@@H](C)O)[C@@H](C)O)C(=O)N[C@@H](CCC(=O)O)C(=O)N[C@@H](Cc1c[nH]c2ccccc12)C(=O)N[C@@H](CC(C)C)C(=O)N[C@@H](CCCCN)C(=O)N[C@@H](CC(N)=O)C(=O)NCC(=O)NCC(=O)N1CCC[C@H]1C(=O)N[C@@H](CO)C(=O)N[C@@H](CO)C(=O)NCC(=O)N[C@@H](C)C(=O)N1CCC[C@H]1C(=O)N1CCC[C@H]1C(=O)N1CCC[C@H]1C(=O)N[C@@H](CO)C(N)=O [(5)] (H-HSQGTFTSDLSKQMDERRAQDFIEWLKNGGPSSGAPPPS-NH2) |  | 67 pM |  |  |
| CCCCCCCCCCCCCCCC(=O)N[C@@H](CCC(=O)NCCCC[C@H](NC(=O)[C@H](CO)NC(=O)[C@@H]1CCCN1C(=O)[C@@H]1CCCN1C(=O)[C@@H]1CCCN1C(=O)[C@H](C)NC(=O)CNC(=O)[C@H](CO)NC(=O)[C@H](CO)NC(=O)[C@@H]1CCCN1C(=O)CNC(=O)[C@H](C)NC(=O)[C@H](CC(N)=O)NC(=O)[C@H](CCCCN)NC(=O)[C@H](CC(C)C)NC(=O)[C@H](Cc1c[nH]c2ccccc12)NC(=O)[C@H](CCC(=O)O)NC(=O)[C@@H](NC(=O)[C@H](Cc1ccccc1)NC(=O)[C@H](CC(=O)O)NC(=O)[C@H](CCC(N)=O)NC(=O)[C@H](C)NC(=O)[C@H](CCCNC(=N)N)NC(=O)[C@H](CCCNC(=N)N)NC(=O)[C@H](CO)NC(=O)[C@H](CCC(=O)O)NC(=O)[C@H](CCSC)NC(=O)[C@H](CCC(N)=O)NC(=O)[C@H](CCCCN)NC(=O)[C@H](CO)NC(=O)[C@H](CC(C)C)NC(=O)[C@H](CC(=O)O)NC(=O)[C@H](CO)NC(=O)[C@@H](NC(=O)[C@H](Cc1ccccc1)NC(=O)[C@@H](NC(=O)CNC(=O)[C@H](CCC(N)=O)NC(=O)[C@@H](CO)NC(=O)[C@@H](N)Cc1c[nH]cn1)[C@@H](C)O)[C@@H](C)O)[C@@H](C)CC)C(N)=O)C(=O)O [(64)] (H-H[dS]QGTFTSDLSKQMESRRAQDFIEWLKNAGPSSGAPPPSK([γGlu-Palmitoyl])-NH2) |  | 67 pM |  |  |
